Data reported in patent US20120277161A1, “INHIBITION OF MULTIPLE CELL ACTIVATION PATHWAYS” (INTER-K PTY LIMITED, priority 2009, published 2012).

How the values were obtained:
PI3K P110δ = PI3K P110δ (Homo sapiens, UniProt O00329); experiment: PI3K HTRF activity assay; format: biochemical
Procedure: (§1) In a final reaction volume of 20 μL, the test PI3K is incubated in assay buffer containing 10 μM phosphatidylinositol-4,5-bisphosphate and MgATP. The reaction is initiated by the addition of the MgATP mix. After incubation for 30 minutes at room temperature, the reaction is stopped by the addition of 5 μL of stop solution containing EDTA and biotinylated phosphatidylinositol-3,4,5-trisphosphate. Finally, 5 μL of detection buffer is added (containing europium-labelled anti-GST monoclonal antibody, GST-tagged GRP1 PH domain and streptavidin-allophycocyanin). The test plate is then read in time-resolved fluorescence mode and the homogenous time-resolved fluorescence (HTRF) signal is determined according to the formula HTRF=10000×(Em665 nm/Em620 nm).

PI3K beta = PI3K beta (Homo sapiens, UniProt P42338); experiment: PI3K HTRF activity assay; format: biochemical
Chain of PI3K beta (P42338 whole entry, species assumed): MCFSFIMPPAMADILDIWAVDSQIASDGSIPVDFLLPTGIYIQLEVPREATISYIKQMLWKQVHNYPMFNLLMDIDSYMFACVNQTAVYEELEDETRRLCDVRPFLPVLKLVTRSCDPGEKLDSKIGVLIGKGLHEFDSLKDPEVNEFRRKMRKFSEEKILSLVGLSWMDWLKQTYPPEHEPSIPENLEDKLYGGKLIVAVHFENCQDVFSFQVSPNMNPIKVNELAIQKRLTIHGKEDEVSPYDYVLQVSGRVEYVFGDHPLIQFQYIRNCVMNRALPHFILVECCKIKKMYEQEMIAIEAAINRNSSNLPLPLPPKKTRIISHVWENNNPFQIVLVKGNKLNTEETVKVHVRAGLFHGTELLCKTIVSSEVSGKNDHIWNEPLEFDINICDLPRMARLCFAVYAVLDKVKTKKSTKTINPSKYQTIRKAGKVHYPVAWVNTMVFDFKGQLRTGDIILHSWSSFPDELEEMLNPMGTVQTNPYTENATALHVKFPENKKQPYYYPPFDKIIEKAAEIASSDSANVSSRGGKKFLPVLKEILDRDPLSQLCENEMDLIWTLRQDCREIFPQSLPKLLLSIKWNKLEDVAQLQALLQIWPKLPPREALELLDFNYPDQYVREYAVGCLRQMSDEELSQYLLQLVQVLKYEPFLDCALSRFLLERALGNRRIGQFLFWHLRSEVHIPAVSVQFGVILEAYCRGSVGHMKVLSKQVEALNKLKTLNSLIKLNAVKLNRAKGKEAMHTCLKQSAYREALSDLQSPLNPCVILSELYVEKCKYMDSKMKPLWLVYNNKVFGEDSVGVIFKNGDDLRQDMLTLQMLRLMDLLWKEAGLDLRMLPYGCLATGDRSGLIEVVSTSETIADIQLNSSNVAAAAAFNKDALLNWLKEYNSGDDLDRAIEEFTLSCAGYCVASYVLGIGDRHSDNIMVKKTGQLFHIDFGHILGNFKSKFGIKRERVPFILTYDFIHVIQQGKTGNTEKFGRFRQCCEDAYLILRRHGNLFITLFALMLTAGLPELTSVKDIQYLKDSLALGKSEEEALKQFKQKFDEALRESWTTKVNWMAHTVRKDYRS
Chain of PI3K beta (P27986 whole entry partner, species assumed): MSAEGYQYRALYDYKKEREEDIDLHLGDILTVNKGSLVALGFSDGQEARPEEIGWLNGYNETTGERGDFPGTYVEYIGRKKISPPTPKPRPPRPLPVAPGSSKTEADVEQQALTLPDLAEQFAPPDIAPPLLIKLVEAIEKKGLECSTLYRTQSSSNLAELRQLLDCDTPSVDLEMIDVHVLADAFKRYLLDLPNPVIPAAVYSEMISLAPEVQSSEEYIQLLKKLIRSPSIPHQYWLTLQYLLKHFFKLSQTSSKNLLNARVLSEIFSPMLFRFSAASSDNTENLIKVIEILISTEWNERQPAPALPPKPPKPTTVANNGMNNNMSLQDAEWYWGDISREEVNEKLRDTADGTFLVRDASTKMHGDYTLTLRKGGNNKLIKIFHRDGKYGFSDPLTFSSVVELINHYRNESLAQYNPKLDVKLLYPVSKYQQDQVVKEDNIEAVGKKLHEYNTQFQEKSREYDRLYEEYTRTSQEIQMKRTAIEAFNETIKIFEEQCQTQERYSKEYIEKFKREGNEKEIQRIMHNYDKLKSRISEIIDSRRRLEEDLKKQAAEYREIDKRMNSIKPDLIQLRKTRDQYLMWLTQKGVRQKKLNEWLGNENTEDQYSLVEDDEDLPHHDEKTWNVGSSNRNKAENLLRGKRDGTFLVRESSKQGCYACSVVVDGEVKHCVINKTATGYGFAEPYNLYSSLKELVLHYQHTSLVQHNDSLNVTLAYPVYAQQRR
Procedure: as §1

PKC alpha = PKC alpha (Homo sapiens, UniProt P17252); experiment: PKC kinase activity assay; format: biochemical
Procedure: (§2) In a final reaction volume of […] PKC kinase (h) (5-10 mU) is incubated with 20 mM HEPES pH 7.4, 0.03% Triton X-100, […], 0.1 mg/mL phosphatidylserine, 10 μg/mL diacylglycerol, 0.1 mg/mL histone H1 or 50 μM of the peptide ERMRPRKRQGSVRRRV (SEQ ID No. 20), 10 mM MgAcetate and [γ-33P-ATP] (specific activity approx. 500 cpm/pmol, concentration as required). The reaction is initiated by the addition of the MgATP mix. After incubation for 40 minutes at room temperature, the reaction is stopped by the addition of 5 μL of a 3% phosphoric acid solution. 10 μL of the reaction is then spotted onto a P30 filtermat and washed three times for 5 minutes in 75 mM phosphoric acid and once in methanol prior to drying and scintillation counting.

PKC beta I = PKC beta I (Homo sapiens, UniProt P05771); experiment: PKC kinase activity assay; format: biochemical
Chain of PKC beta I (P05771 whole entry): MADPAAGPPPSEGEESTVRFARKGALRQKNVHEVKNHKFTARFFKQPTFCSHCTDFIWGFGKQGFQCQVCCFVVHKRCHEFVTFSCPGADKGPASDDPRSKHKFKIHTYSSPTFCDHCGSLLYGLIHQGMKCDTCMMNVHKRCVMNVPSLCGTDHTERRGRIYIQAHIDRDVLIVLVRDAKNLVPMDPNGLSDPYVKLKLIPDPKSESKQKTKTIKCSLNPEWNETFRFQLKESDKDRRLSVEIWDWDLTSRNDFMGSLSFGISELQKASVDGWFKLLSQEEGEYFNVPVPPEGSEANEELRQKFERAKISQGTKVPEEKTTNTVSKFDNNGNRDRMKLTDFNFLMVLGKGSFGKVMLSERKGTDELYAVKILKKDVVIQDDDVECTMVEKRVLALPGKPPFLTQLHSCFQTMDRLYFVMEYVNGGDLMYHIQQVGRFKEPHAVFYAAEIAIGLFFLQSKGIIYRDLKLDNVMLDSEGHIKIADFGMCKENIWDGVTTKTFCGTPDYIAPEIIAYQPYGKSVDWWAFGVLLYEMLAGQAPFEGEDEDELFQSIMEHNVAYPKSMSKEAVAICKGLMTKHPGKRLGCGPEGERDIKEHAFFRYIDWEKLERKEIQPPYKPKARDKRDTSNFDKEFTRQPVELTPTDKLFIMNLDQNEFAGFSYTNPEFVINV
Procedure: as §2

PKC beta II = PKC beta II (Homo sapiens, UniProt P05771); experiment: PKC kinase activity assay; format: biochemical
Chain of PKC beta II (P05771 1-673 isoform P05771-2): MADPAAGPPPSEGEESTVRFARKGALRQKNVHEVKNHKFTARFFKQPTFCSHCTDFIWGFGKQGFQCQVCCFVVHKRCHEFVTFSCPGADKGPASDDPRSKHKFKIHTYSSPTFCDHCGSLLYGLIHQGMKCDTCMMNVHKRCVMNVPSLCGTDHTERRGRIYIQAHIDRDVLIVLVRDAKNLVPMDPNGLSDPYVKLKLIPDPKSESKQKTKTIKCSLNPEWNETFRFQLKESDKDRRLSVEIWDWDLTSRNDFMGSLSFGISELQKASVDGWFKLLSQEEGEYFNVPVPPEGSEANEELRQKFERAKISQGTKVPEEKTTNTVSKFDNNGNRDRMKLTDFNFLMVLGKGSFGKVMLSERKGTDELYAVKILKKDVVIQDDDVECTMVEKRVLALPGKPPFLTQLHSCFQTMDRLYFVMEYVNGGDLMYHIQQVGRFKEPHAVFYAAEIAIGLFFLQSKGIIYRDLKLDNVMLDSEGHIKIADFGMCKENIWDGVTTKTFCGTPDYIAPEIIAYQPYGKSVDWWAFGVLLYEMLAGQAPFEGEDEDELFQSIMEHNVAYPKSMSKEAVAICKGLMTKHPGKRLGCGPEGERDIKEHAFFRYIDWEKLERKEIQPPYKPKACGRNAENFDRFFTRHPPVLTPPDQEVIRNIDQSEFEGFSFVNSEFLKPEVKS
Procedure: as §2

JNK = JNK activity; format: biochemical; conditions: 20 μM, data not shown
FAK = FAK (Homo sapiens, UniProt Q05397); experiment: FAK activity; format: biochemical; conditions: 20 μM, data not shown
HL60 leukemic cells = experiment: MTT proliferation, HL60 cells; format: cell-based; conditions: MTT assay, data not shown; read-out: IC50 inhibition of proliferation of HL60 leukemic cells

Chain of PI3K P110δ (O00329 whole entry, the tested form may be a part): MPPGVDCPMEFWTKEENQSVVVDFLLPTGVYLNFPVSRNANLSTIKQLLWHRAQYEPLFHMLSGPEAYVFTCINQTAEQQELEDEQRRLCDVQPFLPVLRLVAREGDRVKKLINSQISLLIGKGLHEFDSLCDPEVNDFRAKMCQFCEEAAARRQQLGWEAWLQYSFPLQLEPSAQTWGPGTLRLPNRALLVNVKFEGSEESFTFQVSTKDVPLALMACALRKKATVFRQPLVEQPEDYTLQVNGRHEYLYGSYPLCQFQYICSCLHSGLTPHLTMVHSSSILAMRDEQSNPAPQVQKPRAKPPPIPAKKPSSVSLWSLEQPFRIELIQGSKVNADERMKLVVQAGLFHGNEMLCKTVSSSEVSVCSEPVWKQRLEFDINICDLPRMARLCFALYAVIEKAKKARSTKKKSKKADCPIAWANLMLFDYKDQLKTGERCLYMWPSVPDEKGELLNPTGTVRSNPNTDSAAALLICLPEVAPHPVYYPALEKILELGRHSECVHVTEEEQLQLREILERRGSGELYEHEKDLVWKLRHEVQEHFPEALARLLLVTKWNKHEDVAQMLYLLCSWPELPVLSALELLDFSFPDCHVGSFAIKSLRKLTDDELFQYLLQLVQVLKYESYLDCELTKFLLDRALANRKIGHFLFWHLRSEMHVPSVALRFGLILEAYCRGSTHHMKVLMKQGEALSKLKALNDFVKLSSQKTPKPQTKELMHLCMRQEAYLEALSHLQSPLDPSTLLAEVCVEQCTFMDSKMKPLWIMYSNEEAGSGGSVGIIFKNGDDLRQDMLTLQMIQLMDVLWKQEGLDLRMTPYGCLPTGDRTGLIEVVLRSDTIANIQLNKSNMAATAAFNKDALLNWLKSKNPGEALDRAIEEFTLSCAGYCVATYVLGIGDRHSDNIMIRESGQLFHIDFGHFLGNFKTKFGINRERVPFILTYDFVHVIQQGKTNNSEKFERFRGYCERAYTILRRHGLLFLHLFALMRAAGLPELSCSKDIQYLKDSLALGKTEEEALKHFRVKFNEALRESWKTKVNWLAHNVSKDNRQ
Chain of PI3K P110δ (P27986 whole entry partner, the tested form may be a part): as the sequence (P27986 whole entry partner, species assumed) above

- Percentage (%) kinase inhibition PI3K P110δ (PI3K P110δ; dendrimer conc. 1 μM): 39%
- Percentage (%) kinase inhibition PI3K P110δ (PI3K P110δ; dendrimer conc. 2 μM): 56%
- Percentage (%) kinase inhibition PI3K P110δ (PI3K P110δ; dendrimer conc. 250 nm): 9%
- Percentage (%) kinase inhibition PI3K P110δ (PI3K P110δ; dendrimer conc. 500 nm): 25%
- PI3K beta % inhibition (PI3K beta; 20 μM final concentration): approx. 92%
- Percentage (%) kinase inhibition PI3K P110β (PI3K beta; dendrimer conc. 1 μM): 39%
- Percentage (%) kinase inhibition PI3K P110β (PI3K beta; dendrimer conc. 2 μM): 53%
- Percentage (%) kinase inhibition PI3K P110β (PI3K beta; dendrimer conc. 250 nm): 28%
- Percentage (%) kinase inhibition PI3K P110β (PI3K beta; dendrimer conc. 500 nm): 34%
- % Kinase inhibition PKC alpha (PKC alpha; 20 μM, relative to control): 98%
- Percentage (%) kinase inhibition PKC alpha (PKC alpha; dendrimer conc. 1 μM): 83%
- Percentage (%) kinase inhibition PKC alpha (PKC alpha; dendrimer conc. 2 μM): 98%
- Percentage (%) kinase inhibition PKC alpha (PKC alpha; dendrimer conc. 250 nm): 23%
- Percentage (%) kinase inhibition PKC alpha (PKC alpha; dendrimer conc. 500 nm): 45%
- % Kinase inhibition PKC beta I (PKC beta I; 20 μM, relative to control): 98%
- Percentage (%) kinase inhibition PKC beta I (PKC beta I; dendrimer conc. 1 μM): 80%
- Percentage (%) kinase inhibition PKC beta I (PKC beta I; dendrimer conc. 2 μM): 96%
- Percentage (%) kinase inhibition PKC beta I (PKC beta I; dendrimer conc. 250 nm): 19%
- Percentage (%) kinase inhibition PKC beta I (PKC beta I; dendrimer conc. 500 nm): 35%
- % Kinase inhibition PKC beta II (PKC beta II; 20 μM, relative to control): 83%
- Percentage (%) kinase inhibition PKC beta II (PKC beta II; dendrimer conc. 1 μM): 82%
- Percentage (%) kinase inhibition PKC beta II (PKC beta II; dendrimer conc. 2 μM): 95%
- Percentage (%) kinase inhibition PKC beta II (PKC beta II; dendrimer conc. 250 nm): 22%
- Percentage (%) kinase inhibition PKC beta II (PKC beta II; dendrimer conc. 500 nm): 44%
- effect on activity of FAK (FAK): without any effect
- IC50 (HL60 leukemic cells): 2000 nM
Substance: Dend 10-10(4) whose RSKAKNPLYR peptides are entirely D-amino acids and pegylated with two ethylene glycol units [Dend 10-10(4)DP]
- effect on activity of JNK (JNK): without any effect
